Measurements from patent US8933224B2, “Triazine derivatives” (Pfizer Inc., priority 2013, dated 2015).

Columns and labels:
[1] = target: human recombinant PDE10 enzyme (PDE10A) (Homo sapiens, UniProt Q9Y233); test: PDE10 scintillation proximity assay (SPA), inhibition of human recombinant PDE10 enzyme activity; format: biochemical; details: geometric mean of 2-4 determinations unless otherwise indicated (b: ≧5 determinations; c: single determination)
Procedure, shortened: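 His6-tagged human PDE10A (aa 21–797) was expressed in insect cells and purified by Ni-NTA and size exclusion. The enzyme, at a level converting about 20% of 20 nM ^3H-cAMP, was incubated 30 min at 25°C in 50 mM Tris pH 7.5, 1.3 mM MgCl2, 0.01% Brij with inhibitors. The reaction was stopped with yttrium silicate SPA beads, read by scintillation, and IC50 determined.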

rat PDE10 enzyme = rat PDE10 enzyme (Rattus norvegicus (Rat), UniProt Q9QYJ6); test: PDE10 scintillation proximity assay (SPA), inhibition of rat PDE10 enzyme activity; format: biochemical; details: geometric mean of 2-4 determinations unless otherwise indicated (b: ≧5 determinations; c: single determination)
Procedure, shortened: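 SPA with fixed recombinant PDE10 (Sf21-expressed, Ni-NTA and Mono Q purified) converting ~20% of 20 nM ³H-cAMP in 50 mM TRIS pH 7.5, 1.3 mM MgCl2, 0.01% Brij, across an inhibitor range.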

rat PDE10 enzyme, sequence (Q9QYJ6 24-794): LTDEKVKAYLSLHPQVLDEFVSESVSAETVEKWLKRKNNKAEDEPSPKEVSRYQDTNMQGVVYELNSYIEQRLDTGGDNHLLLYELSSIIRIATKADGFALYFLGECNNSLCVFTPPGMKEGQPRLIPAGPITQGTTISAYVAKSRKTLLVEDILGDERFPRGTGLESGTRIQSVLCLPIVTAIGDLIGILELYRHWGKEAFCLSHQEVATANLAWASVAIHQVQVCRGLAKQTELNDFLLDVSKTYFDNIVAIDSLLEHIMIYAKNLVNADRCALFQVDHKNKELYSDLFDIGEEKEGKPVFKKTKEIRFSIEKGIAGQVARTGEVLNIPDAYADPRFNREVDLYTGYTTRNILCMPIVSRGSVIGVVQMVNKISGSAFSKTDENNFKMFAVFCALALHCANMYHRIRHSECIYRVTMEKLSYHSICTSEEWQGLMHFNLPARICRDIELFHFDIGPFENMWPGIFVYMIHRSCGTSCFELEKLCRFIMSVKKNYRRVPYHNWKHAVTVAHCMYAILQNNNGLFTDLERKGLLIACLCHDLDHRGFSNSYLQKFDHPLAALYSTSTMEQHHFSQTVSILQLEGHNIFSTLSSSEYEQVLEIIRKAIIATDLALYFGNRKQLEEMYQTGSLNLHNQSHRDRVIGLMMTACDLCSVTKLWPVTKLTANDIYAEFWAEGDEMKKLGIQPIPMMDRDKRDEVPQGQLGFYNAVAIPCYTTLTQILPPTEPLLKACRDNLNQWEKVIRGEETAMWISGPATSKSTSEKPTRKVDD

`Cc1nc(C2CCOCC2)c2c(N3CCc4c(c(C(C)C)nn4C)C3)ncnn12` [Example 21, 4-(3-isopropyl-1-methyl-1,4,6,7-tetrahydro-5H-pyrazolo[4,3-c]pyridin-5-yl)-7-methyl-5-(tetrahydro-2H-pyran-4-yl)imidazo[5,1-f][1,2,4]triazine] showed an IC50 [1] of 0.876 nM and an IC50 (rat PDE10 enzyme) of 0.51 nM.

Compound `CCc1c2c(nn1C)CCN(c1ncnn3c(C)nc([C@@H]4CCOC4)c13)C2` [Example 57, 4-(3-ethyl-2-methyl-2,4,6,7-tetrahydro-5H-pyrazolo[4,3-c]pyridin-5-yl)-7-methyl-5-[(3S)-tetrahydrofuran-3-yl]imidazo[5,1-f][1,2,4]triazine] has an IC50 [1] of 13.8 nM and an IC50 (rat PDE10 enzyme) of 0.364 nM.

Work on `Cc1ncc2c(n1)CCN(c1ncnn3c(C)nc(-c4ccccc4F)c13)C2` [Example 111, 6-[5-(2-fluorophenyl)-7-methylimidazo[5,1-f][1,2,4]triazin-4-yl]-2-methyl-5,6,7,8-tetrahydropyrido[4,3-d]pyrimidine] yielded an IC50 [1] of 18.6 nM and an IC50 (rat PDE10 enzyme) of 6.85 nM.

`Cc1nc(C)c2c(n1)CCN(c1ncnn3c(C)nc(-c4ccccc4F)c13)C2` [Example 130, 6-[5-(2-fluorophenyl)-7-methylimidazo[5,1-f][1,2,4]triazin-4-yl]-2,4-dimethyl-5,6,7,8-tetrahydropyrido[4,3-d]pyrimidine] showed an IC50 [1] of 2.34 nM and an IC50 (rat PDE10 enzyme) of 1.65 nM.

For `Cc1nc([C@@H]2CCOC2)c2c(N3CCc4c(c(C5CC5)nn4C)C3)ncnn12` [Example 12, 4-(3-Cyclopropyl-1-methyl-1,4,6,7-tetrahydro-5H-pyrazolo[4,3-c]pyridin-5-yl)-7-methyl-5-[(3S)-tetrahydrofuran-3-yl]imidazo[5,1-f][1,2,4]triazine], the IC50 [1] was 0.257 nM and the IC50 (rat PDE10 enzyme) was 0.194 nM.

Work on `COc1cnc2c(c1)CN(c1ncnn3c(C)nc(-c4ccccc4F)c13)CC2` [Example 25, 6-[5-(2-fluorophenyl)-7-methylimidazo[5,1-f][1,2,4]triazin-4-yl]-3-methoxy-5,6,7,8-tetrahydro-1,6-naphthyridine] yielded an IC50 [1] of 1.41 nM and an IC50 (rat PDE10 enzyme) of 1.12 nM.

Compound `Cc1nc([C@@H]2CCOC2)c2c(N3CCc4cnn(C(C)C)c4C3)ncnn12` [Example 91] has an IC50 [1] of 0.61 nM and an IC50 (rat PDE10 enzyme) of 0.793 nM.

With `Cc1nc(-c2ccccc2F)c2c(N3CCc4cc(C5CC5)ncc4C3)ncnn12` [Example 162, 6-cyclopropyl-2-[5-(2-fluorophenyl)-7-methylimidazo[5,1-f][1,2,4]triazin-4-yl]-1,2,3,4-tetrahydro-2,7-naphthyridine] the IC50 [1] was 5.21 nM and the IC50 (rat PDE10 enzyme) was 2.16 nM.

In the case of `Cc1nc([C@H]2CCOC2)c2c(N3CCn4ncc(C(F)(F)F)c4C3)ncnn12` [Example 50, 7-methyl-5-[(3R)-tetrahydrofuran-3-yl]-4-[3-(trifluoromethyl)-6,7-dihydropyrazolo[1,5-a]pyrazin-5(4H)-yl]imidazo[5,1-f][1,2,4]triazine], the IC50 [1] is reported as 3.27 nM and the IC50 (rat PDE10 enzyme) is reported as 2.25 nM.

In the case of `Cc1nc(-c2ccccc2F)c2c(N3CCc4cnn(C)c4C3)ncnn12` [Example 2, 5-(2-Fluorophenyl)-7-methyl-4-(1-methyl-1,4,5,7-tetrahydro-6H-pyrazolo[3,4-c]pyridin-6-yl)imidazo[5,1-f][1,2,4]triazine], the IC50 [1] is reported as 3.28 nM and the IC50 (rat PDE10 enzyme) is reported as 2.95 nM.

With `COc1ccc2c(n1)CN(c1ncnn3c(C)nc([C@@H]4CCOC4)c13)CC2` [Example 19, 2-methoxy-7-{7-methyl-5-[(3S)-tetrahydrofuran-3-yl]imidazo[5,1-f][1,2,4]triazin-4-yl}-5,6,7,8-tetrahydro-1,7-naphthyridine] the IC50 [1] was 2.75 nM and the IC50 (rat PDE10 enzyme) was 2.04 nM.

`Cc1nc2c(c(C(F)(F)F)n1)CN(c1ncnn3c(C)nc([C@@H]4CCOC4)c13)CC2` [Example 88, 2-methyl-6-{7-methyl-5-[(3S)-tetrahydrofuran-3-yl]imidazo[5,1-f][1,2,4]triazin-4-yl}-4-(trifluoromethyl)-5,6,7,8-tetrahydropyrido[4,3-d]pyrimidine] showed an IC50 [1] of 3.64 nM and an IC50 (rat PDE10 enzyme) of 1.56 nM.
